# Test results as given in patent US9505745B2, “Enhancer of zeste homolog 2 inhibitors” (GlaxoSmithKline Intellectual Property (No.2) Limited, priority 2013, dated 2016).
# Counter-ions that a name gives are not always drawn.
# Target: EZH2 within the PRC2 complex (Homo sapiens (Human), UniProt Q15910)
# Experiment: EZH2 methyltransferase SPA, biotinylated histone H3K27 peptide substrate (Assay Protocol 2)
# Type: biochemical
# Conditions: 3H-SAM, ≦10 nM approaches limit of detection
# Method: Compounds contained herein were evaluated for their ability to inhibit the methyltransferase activity of EZH2 within the PRC2 complex. Human PRC2 complex was prepared by co-expressing each of the 5 member proteins (FLAG-EZH2, EED, SUZ12, RbAp48, AEBP2) in Sf9 cells followed by co-purification. Enzyme activity was measured in a scintillation proximity assay (SPA) where a tritiated methyl group is transferred from 3H-SAM to a lysine residue on a biotinylated, unmethylated peptide substrate derived from histone H3. The peptides were captured on streptavidin-coated SPA beads and the resulting signal was read on a ViewLux plate reader.
# Part A. Compound Preparation
# • 4. Prepare 10 mM stock of compounds from solid in 100% DMSO. • 5. Set up an 11-point serial dilution (1:4 dilution, top concentration 10 mM) in 100% DMSO for each test compound in a 384 well plate leaving columns 6 and 18 for DMSO controls. • 6. Dispense 10 nL of compound from the dilution plate into reaction plates (Corning, 384-well polystyrene NBS, Cat#3673). Part B. Reagent Preparation Prepare the following solutions: • 7. 1× Base Buffer, 50 mM Tris-HCl, pH 8, 2 mM MgCl2: Per 1 L of base buffer, combine 1 M Tris-HCl, pH 8 (50 mL), 1 M MgCl2 (2 mL), and distilled water (948 mL). • 8. 1× Assay Buffer: Per 10 mL of 1× Assay Buffer, combine 1× Base Buffer (9.96 mL), 1 M DTT (40 uL), and 10% Tween-20 (1 uL) to provide a final concentration of 50 mM Tris-HCl, pH 8, 2 mM MgCl2, 4 mM DTT, 0.001% Tween-20. • 9. 2× Enzyme Solution: Per 10 mL of 2× Enzyme Solution, combine 1× Assay Buffer (9.99 mL) and 3.24 uM EZH2 5 member complex (6.17 uL) to provide a final enzyme concentration of 1 nM. • 10. SPA Bead Solution: Per 1 mL of SPA Bead Solution, combine Streptavidin coated SPA beads (PerkinElmer, Cat#RPNQ0261, 40 mg) and 1× Assay Buffer (1 mL) to provide a working concentration of 40 mg/mL. • 11. 2× Substrate Solution: Per 10 mL of 2× Substrate Solution, combine 40 mg/mL SPA Bead Solution (375 uL), 1 mM biotinylated histone H3K27 peptide (200 uL), 12.5 uM 3H-SAM (240 uL; 1 mCi/mL), 1 mM cold SAM (57 uL), and 1× Assay Buffer (9.13 mL) to provide a final concentration of 0.75 mg/mL SPA Bead Solution, 10 uM biotinylated histone H3K27 peptide, 0.15 uM 3H-SAM (˜12 uCi/mL 3H-SAM), and 2.85 uM cold SAM. • 12. 2.67× Quench Solution: Per 10 mL of 2.67× Quench Solution, combine 1× Assay Buffer (9.73 mL) and 10 mM cold SAM (267 uL) to provide a final concentration of 100 uM cold SAM. Part C. Assay Reaction in 384-well Grenier Bio-One Plates Compound Addition • 3. Stamp 10 nL/well of 1000× Compound to test wells (as noted above). • 4. Stamp 10 nL/well of 100% DMSO to columns 6 & 18 (high and low controls, respectively). Assay • 10. Dispense 5 uL/well of 1× Assay Buffer to column 18 (low control reactions). • 11. Dispense 5 uL/well of 2× Substrate Solution to columns 1-24 (note: substrate solution should be mixed to ensure homogeneous bead suspension before dispensing into matrix reservoir). • 12. Dispense 5 uL/well of 2× Enzyme Solution to columns 1-17, 19-24. • 13. Incubate the reaction for 60 min at room temperature. Quench • 5. Dispense 6 uL/well of the 2.67× Quench Solution to columns 1-24. • 6. Seal assay plates and spin for ˜1 min at 500 rpm. • 7. Dark adapt plates in the ViewLux instrument for 15-60 min. Read plates • 2. Read the assay plates on the Viewlux Plate Reader utilizing the 613 nm emission filter or clear filter (300 s exposure). Reagent addition can be done manually or with automated liquid handler. Results
# Percent inhibition was calculated relative to the DMSO control for each compound concentration and the resulting values were fit using standard IC50 fitting parameters within the ABASE data fitting software package.
# Chain of EZH2 within the PRC2 complex (Q15910 whole entry): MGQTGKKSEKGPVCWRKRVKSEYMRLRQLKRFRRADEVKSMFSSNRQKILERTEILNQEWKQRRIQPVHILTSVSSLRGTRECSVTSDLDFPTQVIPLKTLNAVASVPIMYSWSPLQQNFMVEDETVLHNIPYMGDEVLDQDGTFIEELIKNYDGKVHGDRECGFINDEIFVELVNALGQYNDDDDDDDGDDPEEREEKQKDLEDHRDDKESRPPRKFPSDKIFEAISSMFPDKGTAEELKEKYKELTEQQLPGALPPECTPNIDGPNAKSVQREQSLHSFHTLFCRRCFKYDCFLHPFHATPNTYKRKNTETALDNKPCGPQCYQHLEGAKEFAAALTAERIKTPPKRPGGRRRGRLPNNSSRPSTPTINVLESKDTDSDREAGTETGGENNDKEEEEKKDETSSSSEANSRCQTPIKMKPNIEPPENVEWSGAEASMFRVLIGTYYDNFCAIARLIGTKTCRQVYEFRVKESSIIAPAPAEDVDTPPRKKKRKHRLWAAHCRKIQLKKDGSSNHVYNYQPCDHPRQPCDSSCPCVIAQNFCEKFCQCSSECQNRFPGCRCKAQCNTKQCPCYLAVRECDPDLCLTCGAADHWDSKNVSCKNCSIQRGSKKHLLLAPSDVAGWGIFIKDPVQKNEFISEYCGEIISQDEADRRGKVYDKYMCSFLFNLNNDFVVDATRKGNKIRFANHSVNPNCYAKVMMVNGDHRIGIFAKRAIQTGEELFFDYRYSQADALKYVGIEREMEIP
# Chain of EZH2 within the PRC2 complex (O75530 whole entry partner): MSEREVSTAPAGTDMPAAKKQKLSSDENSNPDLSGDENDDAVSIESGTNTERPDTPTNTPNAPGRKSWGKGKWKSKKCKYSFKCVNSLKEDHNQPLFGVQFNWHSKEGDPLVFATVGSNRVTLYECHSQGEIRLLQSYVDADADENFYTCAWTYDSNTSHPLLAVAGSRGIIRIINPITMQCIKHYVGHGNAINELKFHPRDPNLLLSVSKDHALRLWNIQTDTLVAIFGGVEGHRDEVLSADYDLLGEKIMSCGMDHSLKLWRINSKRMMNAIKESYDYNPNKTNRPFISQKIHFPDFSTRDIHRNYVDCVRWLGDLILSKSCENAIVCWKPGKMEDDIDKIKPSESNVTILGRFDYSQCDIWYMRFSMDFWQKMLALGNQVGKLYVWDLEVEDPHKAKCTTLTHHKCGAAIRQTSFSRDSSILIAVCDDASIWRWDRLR
# Chain of EZH2 within the PRC2 complex (Q15022 whole entry partner): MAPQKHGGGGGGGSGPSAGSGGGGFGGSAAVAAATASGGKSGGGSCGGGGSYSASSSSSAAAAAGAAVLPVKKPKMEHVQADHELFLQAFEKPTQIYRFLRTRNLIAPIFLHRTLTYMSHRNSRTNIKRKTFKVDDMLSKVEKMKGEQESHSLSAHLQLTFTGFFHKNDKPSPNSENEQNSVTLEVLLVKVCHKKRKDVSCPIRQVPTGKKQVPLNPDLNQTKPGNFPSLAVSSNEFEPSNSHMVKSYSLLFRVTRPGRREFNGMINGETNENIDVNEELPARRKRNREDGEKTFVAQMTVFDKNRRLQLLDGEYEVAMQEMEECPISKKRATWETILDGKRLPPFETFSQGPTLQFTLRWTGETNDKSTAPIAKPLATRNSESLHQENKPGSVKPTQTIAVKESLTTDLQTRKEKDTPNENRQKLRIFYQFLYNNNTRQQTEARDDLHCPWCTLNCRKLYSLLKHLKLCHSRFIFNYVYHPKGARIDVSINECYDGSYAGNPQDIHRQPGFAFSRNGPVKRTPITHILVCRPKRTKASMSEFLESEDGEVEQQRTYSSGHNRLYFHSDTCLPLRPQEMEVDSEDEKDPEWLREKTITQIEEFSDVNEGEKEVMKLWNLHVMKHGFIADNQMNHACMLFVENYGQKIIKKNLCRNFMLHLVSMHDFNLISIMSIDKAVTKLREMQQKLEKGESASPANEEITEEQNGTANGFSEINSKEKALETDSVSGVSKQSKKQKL
# Chain of EZH2 within the PRC2 complex (Q09028 whole entry partner): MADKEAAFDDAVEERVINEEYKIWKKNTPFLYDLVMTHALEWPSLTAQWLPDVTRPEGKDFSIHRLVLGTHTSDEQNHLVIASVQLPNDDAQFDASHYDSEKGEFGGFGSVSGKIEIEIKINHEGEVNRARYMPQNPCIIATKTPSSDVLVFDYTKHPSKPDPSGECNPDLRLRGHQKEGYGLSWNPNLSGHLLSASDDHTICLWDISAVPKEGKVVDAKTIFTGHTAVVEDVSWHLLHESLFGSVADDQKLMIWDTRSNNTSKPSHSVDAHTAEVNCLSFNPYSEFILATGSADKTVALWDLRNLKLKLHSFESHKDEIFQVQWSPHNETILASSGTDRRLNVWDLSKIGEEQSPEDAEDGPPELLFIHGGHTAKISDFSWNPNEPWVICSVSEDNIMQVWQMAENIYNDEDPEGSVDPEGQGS
# Chain of EZH2 within the PRC2 complex (Q6ZN18 whole entry partner): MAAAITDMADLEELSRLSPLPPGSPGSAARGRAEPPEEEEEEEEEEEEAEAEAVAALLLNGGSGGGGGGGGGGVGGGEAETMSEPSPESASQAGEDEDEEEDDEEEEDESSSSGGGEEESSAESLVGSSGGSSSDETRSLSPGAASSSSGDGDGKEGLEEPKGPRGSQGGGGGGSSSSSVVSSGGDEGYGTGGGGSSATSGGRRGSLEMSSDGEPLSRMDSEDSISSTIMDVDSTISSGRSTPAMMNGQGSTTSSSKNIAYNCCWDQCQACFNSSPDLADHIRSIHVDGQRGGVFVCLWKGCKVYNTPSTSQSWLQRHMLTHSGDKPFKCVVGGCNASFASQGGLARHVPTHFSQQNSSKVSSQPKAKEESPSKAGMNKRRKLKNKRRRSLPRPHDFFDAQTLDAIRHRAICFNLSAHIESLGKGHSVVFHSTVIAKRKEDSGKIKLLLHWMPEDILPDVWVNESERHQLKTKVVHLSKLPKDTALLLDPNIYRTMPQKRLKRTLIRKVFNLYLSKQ
row,SMILES,IC50
1,"CCOC(=O)N(CC)c1scc(C(=O)NCc2c(C)cc(C)[nH]c2=O)c1C [Example 65, Ethyl (4-(((4,6-dimethyl-2-oxo-1,2-dihydropyridin-3-yl)methyl)carbamoyl)-3-methylthiophen-2-yl)(ethyl)carbamate]",200 nM
2,"CCN(c1scc(C(=O)NCc2c(C)cc(C)[nH]c2=O)c1C)C1CCN(C(C)C)CC1 [Example 66, N-((4,6-dimethyl-2-oxo-1,2-dihydropyridin-3-yl)methyl)-5-(ethyl(1-isopropylpiperidin-4-yl)amino)-4-methylthiophene-3-carboxamide]",63 nM
3,"CCN(c1scc(C(=O)NCc2c(C)cc(C)[nH]c2=O)c1C)C1CCNCC1F (centres unmarked) [Example 67, N-((4,6-dimethyl-2-oxo-1,2-dihydropyridin-3-yl)methyl)-5-(ethyl(3-fluoropiperidin-4-yl)amino)-4-methylthiophene-3-carboxamide]",20 nM
4,"Cc1cc(C)c(CNC(=O)c2csc(N3CCCCC3C3CCNCC3)c2C)c(=O)[nH]1 (centres unmarked) [Example 69, 5-([2,4′-Bipiperidin]-1-yl)-N-((4,6-dimethyl-2-oxo-1,2-dihydropyridin-3-yl)methyl)-4-methylthiophene-3-carboxamide hydrochloride]",501 nM
5,"Cc1cc(C)c(CNC(=O)c2csc(-c3cccc4c3CCNC4)c2C)c(=O)[nH]1 [Example 70, N-((4,6-Dimethyl-2-oxo-1,2-dihydropyridin-3-yl)methyl)-4-methyl-5-(1,2,3,4-tetrahydroisoquinolin-5-yl)thiophene-3-carboxamide hydrochloride]",100 nM
6,"C/C=C(/CCN1CCOCC1)c1scc(C(=O)NCc2c(C)cc(C)[nH]c2=O)c1C [Example 71, (Z)—N-((4,6-Dimethyl-2-oxo-1,2-dihydropyridin-3-yl)methyl)-4-methyl-5-(5-morpholinopent-2-en-3-yl)thiophene-3-carboxamide]",1000 nM
7,"C/C=C(/CCCN1CCN(C)CC1)c1scc(C(=O)NCc2c(C)cc(C)[nH]c2=O)c1C [Example 72, (Z)—N-((4,6-Dimethyl-2-oxo-1,2-dihydropyridin-3-yl)methyl)-4-methyl-5-(6-(4-methylpiperazin-1-yl)hex-2-en-3-yl)thiophene-3-carboxamide]",251 nM
8,"CCC(CCCN1CCN(C)CC1)c1scc(C(=O)NCc2c(C)cc(C)[nH]c2=O)c1C (centres unmarked) [Example 73, N-((4,6-Dimethyl-2-oxo-1,2-dihydropyridin-3-yl)methyl)-4-methyl-5-(6-(4-methylpiperazin-1-yl)hexan-3-yl)thiophene-3-carboxamide]",126 nM

# The next lines start with the values.
row,IC50,SMILES
1,32 nM,"CCN(c1sc(C)c(C(=O)NCc2c(C)cc(C)[nH]c2=O)c1C)C1CCOCC1 [Example 54, N-((4,6-Dimethyl-2-oxo-1,2-dihydropyridin-3-yl)methyl)-5-(ethyl(tetrahydro-2H-pyran-4-yl)amino)-2,4-dimethylthiophene-3-carboxamide hydrochloride]"
2,79 nM,"CCN(c1sc(C#N)c(C(=O)NCc2c(C)cc(C)[nH]c2=O)c1C)C1CCOCC1 [Example 55, 2-Cyano-N-((4,6-dimethyl-2-oxo-1,2-dihydropyridin-3-yl)methyl)-5-(ethyl(tetrahydro-2H-pyran-4-yl)amino)-4-methylthiophene-3-carboxamide hydrochloride]"
3,501 nM,"CCN(c1sc(N2CCN(C)CC2)c(C(=O)NCc2c(C)cc(C)[nH]c2=O)c1C)C1CCOCC1 [Example 56, N-((4,6-Dimethyl-2-oxo-1,2-dihydropyridin-3-yl)methyl)-5-(ethyl(tetrahydro-2H-pyran-4-yl)amino)-4-methyl-2-(4-methylpiperazin-1-yl)thiophene-3-carboxamide hydrochloride]"
4,200 nM,"CCN(c1sc(C2CCN(C(=O)OC(C)(C)C)C2)c(C(=O)NCc2c(C)cc(C)[nH]c2=O)c1C)C1CCOCC1 (centres unmarked) [Example 57, tert-Butyl 3-(3-(((4,6-dimethyl-2-oxo-1,2-dihydropyridin-3-yl)methyl)carbamoyl)-5-(ethyl(tetrahydro-2H-pyran-4-yl)amino)-4-methylthiophen-2-yl)pyrrolidine-1-carboxylate]"
5,794 nM,"CCN(c1sc(C2CCNC2)c(C(=O)NCc2c(C)cc(C)[nH]c2=O)c1C)C1CCOCC1 (centres unmarked) [Example 58, N-((4,6-Dimethyl-2-oxo-1,2-dihydropyridin-3-yl)methyl)-5-(ethyl(tetrahydro-2H-pyran-4-yl)amino)-4-methyl-2-(pyrrolidin-3-yl)thiophene-3-carboxamide hydrochloride]"
6,316 nM,"CCN(c1sc(C2CCN(C(=O)OC(C)(C)C)CC2)c(C(=O)NCc2c(C)cc(C)[nH]c2=O)c1C)C1CCOCC1 [Example 59, tert-Butyl 4-(3-(((4,6-dimethyl-2-oxo-1,2-dihydropyridin-3-yl)methyl)carbamoyl)-5-(ethyl(tetrahydro-2H-pyran-4-yl)amino)-4-methylthiophen-2-yl)piperidine-1-carboxylate]"
7,631 nM,"CCN(c1sc(C2CCNCC2)c(C(=O)NCc2c(C)cc(C)[nH]c2=O)c1C)C1CCOCC1 [Example 60, N-((4,6-Dimethyl-2-oxo-1,2-dihydropyridin-3-yl)methyl)-5-(ethyl(tetrahydro-2H-pyran-4-yl)amino)-4-methyl-2-(piperidin-4-yl)thiophene-3-carboxamide hydrochloride]"
8,501 nM,"CCN(c1sc(C2=CCN(C)CC2)c(C(=O)NCc2c(C)cc(C)[nH]c2=O)c1C)C1CCOCC1 [Example 61, N-((4,6-Dimethyl-2-oxo-1,2-dihydropyridin-3-yl)methyl)-5-(ethyl(tetrahydro-2H-pyran-4-yl)amino)-4-methyl-2-(1-methyl-1,2,3,6-tetrahydropyridin-4-yl)thiophene-3-carboxamide]"
9,501 nM,"CCN(c1sc(C2CCN(S(C)(=O)=O)C2)c(C(=O)NCc2c(C)cc(C)[nH]c2=O)c1C)C1CCOCC1 (centres unmarked) [Example 62, N-((4,6-Dimethyl-2-oxo-1,2-dihydropyridin-3-yl)methyl)-5-(ethyl(tetrahydro-2H-pyran-4-yl)amino)-4-methyl-2-(1-(methylsulfonyl)pyrrolidin-3-yl)thiophene-3-carboxamide]"
10,501 nM,"CCN(c1sc(C2CCN(S(C)(=O)=O)CC2)c(C(=O)NCc2c(C)cc(C)[nH]c2=O)c1C)C1CCOCC1 [Example 63, N-((4,6-Dimethyl-2-oxo-1,2-dihydropyridin-3-yl)methyl)-5-(ethyl(tetrahydro-2H-pyran-4-yl)amino)-4-methyl-2-(1-(methylsulfonyl)piperidin-4-yl)thiophene-3-carboxamide]"
11,16 nM,"CCN(C)[C@H]1CC[C@H](N(CC)c2scc(C(=O)NCc3c(C)cc(C)[nH]c3=O)c2C)CC1 [Example 64, N-((4,6-dimethyl-2-oxo-1,2-dihydropyridin-3-yl)methyl)-5-(ethyl((trans)-4-(ethyl(methyl)amino)cyclohexyl)amino)-4-methylthiophene-3-carboxamide]"
12,79 nM,"Cc1cc(C)c(CNC(=O)c2csc(N3CCCC3C3CCNCC3)c2C)c(=O)[nH]1 (centres unmarked) [Example 68, N-((4,6-dimethyl-2-oxo-1,2-dihydropyridin-3-yl)methyl)-4-methyl-5-(2-(piperidin-4-yl)pyrrolidin-1-yl)thiophene-3-carboxamide hydrochloride]"
